Measurements as given in US20170306385A1, “METHODS FOR DISCOVERING THERAPEUTICS THAT ALTER THE STABILITY OF TARGET PROTEINS” (Dana-Farber Cancer Institute, Inc., priority 2014, published 2017).
Where a SMILES comes first, the peptide text is derived from it. The star is where a group is joined. Cbz = O=C(OCc1ccccc1)*

Experiments:
Assay type in all cases: cell-based
fusion protein = experiment: Western blot confirmation of fusion protein reduction by HSP90 inhibitors
[1] = tested on: MYC-luciferase fusion protein; experiment: Stability time course for 7 MYC-luciferase fusion cell lines, fused (tagged) luciferase; conditions: for increase in MYC-luciferase fusion protein: all 7 cell lines
Protocol: (§1) Seven cell lines were used to measure the half life of the luciferases after blocking all protein synthesis with cyclohexamide. The decay observed for both fused luciferases (MYC-firefly and MYC-nanoluc; FIG. 12B) were compared to the decay observed for the unfused luciferases (renilla and firefly; FIG. 12A) using both the MYC-firefly:renilla and MYC-nanoluc:firefly cell lines 293T, U2OS and the MYC-firefly:renilla cell lines A549, H1299 and LS174T. […] MYC nanoluc half life of approximately 2 hours is longer than MYC-firefly half-life of less than 1 hour and closer to the half-life of untagged firefly. The balanced half-life of MYC-nanoluc and untagged firefly should reduce the number of artefact hits.
(§2) Seven MYC-luciferase reporter cell lines were used to measure changes in MYC-luciferase expression after blocking the proteasome with MG132. The expression of the unfussed renilla and firefly were unchanged for about 6 hours but decreased after 18 hours to a variable extent among cell lines (FIG. 13B).
(§3) Seven MYC-luciferase reporter cell lines were used to measure changes in MYC-luciferase expression after inhibition of ubiquitin dependent proteolysis with the neddylation inhibitor MLN-4924 (FIG. 14A-B).

[2] = tested on: unfused luciferases (renilla and firefly); experiment: Stability time course for 7 MYC-luciferase fusion cell lines, unfused (untagged) luciferase
Protocol: as §1, §2, §3

Structure (SMILES): COc1c(C)cnc(Cn2cnc3c(Cl)nc(N)nc32)c1C [BIIB021]
- knockdown of protein levels by western blot (fusion protein): confirmed

Structure (SMILES): CC(C)C[C@@H](C=O)NC(=O)[C@H](CC(C)C)NC(=O)[C@H](CC(C)C)NC(=O)OCc1ccccc1 [MG132] (Cbz-Leu-Leu-Leu-aldehyde)
- increase in luciferase signals of MYC-nanoluc ([1]; MYC-nanoluc cell lines, MG132): about 4 fold
- increase in MYC-luciferase fusion protein ([1]; proteasome blocked with MG132, different time course): ≥ 50%
- expression of unfused renilla and firefly ([2]; MG132, after 18 hours, variable extent among cell lines): decreased
- expression of unfused renilla and firefly ([2]; MG132, for about 6 hours): unchanged

Structure (SMILES): NS(=O)(=O)OC[C@@H]1C[C@@H](n2ccc3c(N[C@H]4CCc5ccccc54)ncnc32)C[C@@H]1O [MLN-4924]
- increase in MYC-luciferase fusion protein ([1]; MLN-4924, typically peaking after 6 hours of treatment): ≥ 50%
- expression of unfused renilla and firefly ([2]; MLN-4924, except for the 293T MYC-firefly:renilla cell line): minimally affected

Structure (SMILES): CC1(C)CC(=O)c2c(C(F)(F)F)nn(-c3ccc(C(N)=O)c(N[C@H]4CC[C@H](OC(=O)CN)CC4)c3)c2C1 [PF-04929113]
- knockdown of protein levels by western blot (fusion protein): confirmed
